Measurements from ChEMBL document CHEMBL5726211, “SGC stimulators” (2019).

Assay: HEK WC Assay: Human embryonic kidney cells (HEK293), endogenously expressing soluble guanylate cyclase (sGC), were used to evaluate the activity of test compounds. Compounds stimulating the sGC receptor should cause an increase in the intracellular concentration of cGMP. HEK 293 cells were seeded in Dulbecco's Modification of Eagle's Medium supplemented with fetal bovine serum (10% final) and L-glutamine (2 mM final) in a 200 μL volume at a density of 1×10^5 cells/well in a poly-D-lysine coated 96 well flat bottom plate and grown overnight at 37° C. Medium was aspirated and cells were washed with 1× Hank's Buffered Saline Salt Solution (200 μL). Cells were then incubated for 15 minutes at 37° C. with 0.5 mM 3-isobutyl-1-methylxanthine (200 μL). Test article and sodium nitroprusside were then added to the assay mixture (2 μL each) and incubated at 37° C. for 10 minutes. After the 10 minute incubation, the assay mixture was aspirated and 0.1M HCl (200 μL) was added to the cells. The plate was incubated at 4° C. for 30 minutes in the 0.1M HCl to stop the reaction and lysed the cells. The plates were then centrifuged at 1,200 g for 5 minutes at room temperature. Supernatants were collected and transferred to a new flat bottom 96 well plate for analysis. Vehicle controls were carried out using DMSO (1%). A known sGC stimulator, BAY 41-2272, was used as the positive control. Samples were diluted with an equal volume of 1 M Ammonium Acetate (pH 7) to neutralize samples for better chromatography. A 2×cGMP standard curve was prepared in 0.1 M HCl and then diluted with an equal volume of 1 M Ammonium Acetate, with the following final concentrations in nM: 1024, 512, 256, 128, 64, 32, 16, 8, 4, 2, 1. cGMP concentrations were determined from each sample using the LC/MS conditions (Table 2 below) and calculated standard curve. EC50 values were calculated from concentration-response curves generated with GraphPad Prism Software.
Type: cell-based

SMILES | EC50 [µM]
Nc1nc(-c2cc(-c3ccon3)n(Cc3ccccc3F)n2)ncc1NC(=O)c1cscn1 | < 20
CN(C)c1ccccc1C(=O)Nc1cnc(-c2cc(-c3ccon3)n(Cc3ccccc3F)n2)nc1N | 40 to 60
COc1ccc(C(=O)Nc2cnc(-c3cc(-c4ccon4)n(Cc4ccccc4F)n3)nc2N)cc1 | < 20
[C-]#[N+]c1cc(-c2ccccn2)nn1Cc1ccccc1F | 30
CC(C)(F)C(=O)Nc1cnc(-c2cc(-c3ccon3)n(Cc3ccccc3F)n2)nc1N | < 20
Nc1nc(-c2cc(-c3ccon3)n(Cc3ccccc3F)n2)ncc1NC(=O)C1CC2C=CC1C2 (stereo unspecified) | < 20
Nc1nc(-c2cc(-c3ncco3)n(Cc3ccccc3F)n2)ncc1NC(=O)C1(C(F)(F)F)CC1 | < 20
Nc1nc(-c2cc(-c3ccon3)n(Cc3ccccc3F)n2)ncc1NC(=O)c1cccc(OC(F)(F)F)c1 | < 20
[C-]#[N+]C1(C(=O)Nc2cnc(-c3cc(-c4ccon4)n(Cc4ccccc4F)n3)nc2N)CC1 | < 20
Cc1cccc(C)c1C(=O)Nc1cnc(-c2cc(-c3ccon3)n(Cc3ccccc3F)n2)nc1N | < 20
CCOC(=O)c1cnc(-c2cc(-c3ccon3)n(Cc3ccccc3F)n2)nc1O | 20 to 40
